Read-outs that look alike come from different tables or passages of the source.
Assays:
human α7 nAChR = human α7 nAChR (Homo sapiens, UniProt P36544); test: cell-based; conditions: EC50 of human α7nAChR(nM), HEK293T/17 cells transfected with human α7 nAChR; PNU-120596 added; relative to epibatidine 1 μM positive control
Male ICR mice [1] = test: Novel Object Recognition Test (NORT), MK-801 induced amnesia; assay type: in vivo; conditions: Mus musculus; po; dose at which the relative RI is given; doses 0.03˜3 mg/kg; read-out: NORT MED
From the text: A NORT, which was first introduced by Ennaceur and Delacour, is a cognitive memory test for measuring whether rats are able to remember objects with which they have had previous experience based on the nature of rats, i.e., preference to explore novel objects [Ennaceur A and Delacour J (1988) A new one-trial test for neurobiological studies of memory in rats. 1; Behavioral data. Behavioral Brain Res. 31; 47-59]. This NOR test is a popular experimental method for measuring changes in memory of objects in rodents administered with either an amnesia-inducing drug or other general drugs, by which memory recovery efficacy of a test drug in the rodents administered with the amnesia-inducing drug is explored. In the present example, the test was performed in accord with the description of Bevins and Besheer [Bevins, R. A. & Besheer, J. Object recognition in rats and mice; a one-trial non-matching-to-sample learning task to study ‘recognition memory’. Nat. Protoc. 2006; 1(3); 1306-11. (2006)]. Male ICR mice (available from Orient Bio Inc., Korea) weighing from about 20 g to about 32 g were orally administered a test compound dissolved in a 30% PEG at doses of 0.03˜3 mg/kg and 10 ml/kg body weight. 30 minutes after the administration, MK-801 (available from Sigma) dissolved in saline was subcutaneously administered at doses of 0.1 mg/kg and 10 ml/kg body weight to induce amnesia. About 30 minutes after the administration of MK-801, the mice were allowed to explore a rectangular stainless steel pillar or a circular plastic pillar which was previously placed in a box for about 5 minutes. About 24 hours after the exploration, one of the two objects previously presented was replaced with a new one (i.e., to include one rectangular stainless steel pillar and one circular plastic pillar), the times they took to explore were measured for about 5 minutes. A recognition index (RI) was defined as: [(Exploration time for novel object in test compound group/Exploration time for all objects in test compound group)/(Exploration time for novel object in MK801 group/Exploration time for all objects in MK801 group)×100].
Table 2 below presents relative RIs of the compounds at a minimal dose […].

Male ICR mice [2] = test: as above; assay type: in vivo; conditions: Mus musculus; ip; dose at which the relative RI is given; doses 0.03˜3 mg/kg; read-out: NORT MED

Chain of human α7 nAChR (P36544 23-502): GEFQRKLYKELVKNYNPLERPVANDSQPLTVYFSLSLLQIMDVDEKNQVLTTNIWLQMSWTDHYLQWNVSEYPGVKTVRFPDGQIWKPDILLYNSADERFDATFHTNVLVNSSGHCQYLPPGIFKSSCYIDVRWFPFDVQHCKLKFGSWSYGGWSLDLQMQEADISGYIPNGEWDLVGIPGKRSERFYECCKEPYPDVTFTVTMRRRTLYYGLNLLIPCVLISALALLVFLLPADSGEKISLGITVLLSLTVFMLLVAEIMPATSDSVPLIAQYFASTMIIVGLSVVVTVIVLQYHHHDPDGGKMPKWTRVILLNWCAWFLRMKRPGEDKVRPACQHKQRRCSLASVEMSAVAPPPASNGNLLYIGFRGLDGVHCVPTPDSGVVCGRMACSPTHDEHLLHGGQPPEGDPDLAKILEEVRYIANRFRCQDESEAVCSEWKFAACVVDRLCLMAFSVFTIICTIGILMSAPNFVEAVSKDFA

| SMILES | EC50 (human α7 nAChR) | minimal effective dose (Male ICR mice [1]) | minimal effective dose (Male ICR mice [2]) | minimal effective dose at 3 mg/kg (Male ICR mice [1]) |
| --- | --- | --- | --- | --- |
| Cc1ccc(-c2ccc(-n3cc(C(=O)NC4CN5CCC4CC5)ccc3=O)c(Cl)c2)s1 (centres unmarked) [Example 109, N-(1-azabicyclo[2.2.2]octan-3-yl)-1-[2-chloro-4-(5-methyl-2-thiophenyl)phenyl]-6-oxo-3-pyridinecarboxamide] | 100 to 500 nM | 3 mg/kg | – | – |
| O=C(NC1CN2CCC1CC2)c1ccc(=O)n(-c2ccc(Cl)cc2Cl)c1 (centres unmarked) [Example 25, N-(1-azabicyclo[2.2.2]octan-3-yl)-1-(2,4-dichlorophenyl)-6-oxo-3-pyridinecarboxamide] | 500 to 1000 nM | 3 mg/kg | – | – |
| CSc1ccccc1-n1cc(C(=O)NC2CN3CCC2CC3)ccc1=O (centres unmarked) [Example 77, N-(1-azabicyclo[2.2.2]octan-3-yl)-1-[2-(methylthio)phenyl]-6-oxo-3-pyridinecarboxamide] | < 100 nM | – | 0.1 mg/kg | – |
| O=C(N[C@H]1CN2CCC1CC2)c1ccc(=O)n(-c2ccc(Cl)cc2Cl)c1 [Example 26, N-[(3R)-1-azabicyclo[2.2.2]octan-3-yl)-1-(2,4-dichlorophenyl)-6-oxo-3-pyridinecarboxamide] | 100 to 500 nM | 1 mg/kg | – | – |
| O=C(NC1CN2CCC1CC2)c1ccc(=O)n(-c2ccccc2-c2nccs2)c1 (centres unmarked) [Example 104, N-(1-azabicyclo[2.2.2]octan-3-yl)-6-oxo-1-[2-(2-thiazolyl)phenyl]-3-pyridinecarboxamide] | 100 to 500 nM | 3 mg/kg | – | – |
| CSc1cc(C)ccc1-n1cc(C(=O)NC2CN3CCC2CC3)ccc1=O (centres unmarked) [Example 89, N-(1-azabicyclo[2.2.2]octan-3-yl)-1-[4-methyl-2-(methylthio)phenyl]-6-oxo-3-pyridinecarboxamide] | < 100 nM | 0.03 mg/kg | – | – |
| Cc1ccc(-n2cc(C(=O)NC3CN4CCC3CC4)ccc2=O)c(Cl)c1 (centres unmarked) [Example 33, N-(1-azabicyclo[2.2.2]octan-3-yl)-1-(2-chloro-4-methylphenyl)-6-oxo-3-pyridinecarboxamide] | 100 to 500 nM | 1 mg/kg | – | – |
| O=C(NC1CN2CCC1CC2)c1ccc(=O)n(-c2ccc(Cl)cc2)c1 (centres unmarked) [Example 4, N-(1-azabicyclo[2.2.2]octan-3-yl)-1-(4-chlorophenyl)-6-oxo-3-pyridinecarboxamide] | > 1000 nM | – | – | 3 mg/kg |
| O=C(NC1CN2CCC1CC2)c1ccc(=O)n(-c2ccc(Cl)cc2-c2nccs2)c1 (centres unmarked) [Example 105, N-(1-azabicyclo[2.2.2]octan-3-yl)-1-[4-chloro-2-(2-thiazolyl)phenyl]-6-oxo-3-pyridine carboxamide] | 500 to 1000 nM | 0.3 mg/kg | – | – |
| CSc1cc(Cl)ccc1-n1cc(C(=O)NC2CN3CCC2CC3)ccc1=O (centres unmarked) [Example 86, N-(1-azabicyclo[2.2.2]octan-3-yl)-1-[4-chloro-2-(methylthio)phenyl]-6-oxo-3-pyridinecarboxamide] | < 100 nM | 0.3 mg/kg | – | – |
| O=C(NC1CN2CCC1CC2)c1ccc(=O)n(-c2ccc(-c3ccccc3)cc2)c1 (centres unmarked) [Example 65, N-(1-azabicyclo[2.2.2]octan-3-yl)-1-(4-phenylphenyl)-6-oxo-3-pyridinecarboxamide] | 100 to 500 nM | – | 1 mg/kg | – |
| O=C(N[C@H]1CN2CCC1CC2)c1ccc(=O)n(-c2ccc(Cl)cc2)c1 [Example 5, N-[(3R)-1-azabicyclo[2.2.2]octan-3-yl]-1-(4-chlorophenyl)-6-oxopyridine-3-carboxamide] | > 1000 nM | – | 0.1 mg/kg | – |
| Cc1ccc(-n2cc(C(=O)NC3CN4CCC3CC4)ccc2=O)cc1 (centres unmarked) [Example 12, N-(1-azabicyclo[2.2.2]octan-3-yl)-1-(4-methylphenyl)-6-oxo-3-pyridinecarboxamide] | 500 to 1000 nM | – | – | – |
| CSc1ccc(-n2cc(C(=O)NC3CN4CCC3CC4)ccc2=O)cc1 (centres unmarked) [Example 76, N-(1-azabicyclo[2.2.2]octan-3-yl)-1-[4-(methylthio)phenyl]-6-oxo-3-pyridinecarboxamide] | 100 to 500 nM | – | – | – |
| CC(C)Sc1cc(Cl)ccc1-n1cc(C(=O)NC2CN3CCC2CC3)ccc1=O (centres unmarked) [Example 93, N-(1-azabicyclo[2.2.2]octan-3-yl)-1-[4-chloro-2-(propan-2-ylthio)phenyl]-6-oxo-3-pyridinecarboxamide] | 100 to 500 nM | – | – | – |
| O=C(N[C@@H]1CN2CCC1CC2)c1ccc(=O)n(-c2ccc(Cl)cc2)c1 [Example 6, N-[(3S)-1-azabicyclo[2.2.2]octan-3-yl]-1-(4-chlorophenyl)-6-oxopyridine-3-carboxamide] | > 1000 nM | – | – | – |
| CCCc1ccc(-n2cc(C(=O)NC3CN4CCC3CC4)ccc2=O)c(SC)c1 (centres unmarked) [Example 94, N-(1-azabicyclo[2.2.2]octan-3-yl)-1-[2-(methylthio)-4-propylphenyl]-6-oxo-3-pyridinecarboxamide] | < 100 nM | – | – | – |
| Cc1ccc(-c2ccc(-n3cc(C(=O)NC4CN5CCC4CC5)ccc3=O)cc2)cc1 (centres unmarked) [Example 69, N-(1-azabicyclo[2.2.2]octan-3-yl)-1-[4-(4-methylphenyl)phenyl]-6-oxo-3-pyridinecarboxamide] | 100 to 500 nM | – | – | – |
| CSc1cc(C2CCCCC2)ccc1-n1cc(C(=O)NC2CN3CCC2CC3)ccc1=O (centres unmarked) [Example 99, N-(1-azabicyclo[2.2.2]octan-3-yl)-1-[4-cyclohexyl-2-(methylthio)phenyl]-6-oxo-3-pyridinecarboxamide] | 100 to 500 nM | – | – | – |
| O=C(NC1CN2CCC1CC2)c1ccc(=O)n(-c2ccc(Cl)cc2F)c1 (centres unmarked) [Example 38, N-(1-azabicyclo[2.2.2]octan-3-yl)-1-(4-chloro-2-fluorophenyl)-6-oxo-3-pyridinecarboxamide] | 100 to 500 nM | – | – | – |
| CCSc1cc(OC)ccc1-n1cc(C(=O)NC2CN3CCC2CC3)ccc1=O (centres unmarked) [Example 85, N-(1-azabicyclo[2.2.2]octan-3-yl)-1-[2-(ethylthio)-4-methoxyphenyl]-6-oxo-3-pyridinecarboxamide] | < 100 nM | – | – | – |
| CCc1ccc(-n2cc(C(=O)NC3CN4CCC3CC4)ccc2=O)c(SC)c1 (centres unmarked) [Example 98, N-(1-azabicyclo[2.2.2]octan-3-yl)-1-[4-ethyl-2-(methylthio)phenyl]-6-oxo-3-pyridinecarboxamide] | < 100 nM | – | – | – |
| O=C(N[C@@H]1CN2CCC1CC2)c1ccc(=O)n(-c2ccc(Cl)cc2Cl)c1 [Example 27, N-[(3S)-1-azabicyclo[2.2.2]octan-3-yl)-1-(2,4-dichlorophenyl)-6-oxo-3-pyridinecarboxamide] | > 1000 nM | 1 mg/kg | – | – |
| O=C(NC1CN2CCC1CC2)c1ccc(=O)n(-c2ccc(OC(F)(F)F)cc2Cl)c1 (centres unmarked) [Example 57, N-(1-azabicyclo[2.2.2]octan-3-yl)-1-[2-chloro-4-(trifluoromethoxy)phenyl]-6-oxo-3-pyridinecarboxamide] | 100 to 500 nM | – | – | – |
| COc1ccc(-n2cc(C(=O)NC3CN4CCC3CC4)ccc2=O)c(SC)c1 (centres unmarked) [Example 84, N-(1-azabicyclo[2.2.2]octan-3-yl)-1-[4-methoxy-2-(methylthio)phenyl]-6-oxo-3-pyridinecarboxamide] | < 100 nM | 0.3 mg/kg | – | – |
| CSc1cc(C)ccc1-n1cc(C(=O)N[C@@H]2CN3CCC2CC3)ccc1=O [Example 91, N-[(3S)-1-azabicyclo[2.2.2]octan-3-yl]-1-[4-methyl-2-(methylthio)phenyl]-6-oxo-3-pyridinecarboxamide] | 100 to 500 nM | – | – | 3 mg/kg |
| CC(C)c1ccc(-n2cc(C(=O)NC3CN4CCC3CC4)ccc2=O)cc1 (centres unmarked) [Example 17, N-(1-azabicyclo[2.2.2]octan-3-yl)-6-oxo-1-(4-propan-2-ylphenyl)-3-pyridinecarboxamide] | 500 to 1000 nM | – | – | – |
| CSc1ccc(C(F)(F)F)cc1-n1cc(C(=O)NC2CN3CCC2CC3)ccc1=O (centres unmarked) [Example 83, N-(1-azabicyclo[2.2.2]octan-3-yl)-1-[2-(methylthio)-5-(trifluoromethyl)phenyl]-6-oxo-3-pyridinecarboxamide] | 500 to 1000 nM | – | – | – |
| CCSc1ccccc1-n1cc(C(=O)NC2CN3CCC2CC3)ccc1=O (centres unmarked) [Example 80, N-(1-azabicyclo[2.2.2]octan-3-yl)-1-[2-(ethylthio)phenyl]-6-oxo-3-pyridinecarboxamide] | < 100 nM | – | – | – |

From patent US8716309B2, “Pharmaceutical composition comprising pyridone derivatives” (priority 2011, dated 2014)
